# Measured values taken from patent US20040166508A1, “Analytical platform and detection method with the analytes to be determined in a sample as immobilized specific binding partners, optionally after fractionation of said sample” (priority 2002, published 2004).
# Test system: pErk2 (Phospho-p44/42 MAP kinase (Thr202/Tyr204))
# Assay: Detection of pErk2 (phospho-p44/42 MAP kinase) in immobilized Jurkat cell lysates (antibody A3)
# Format: cell-based, human
# Details: Jurkat cells treated with 10 μM for 180 min
# Procedure: Human T-cell cultures (Jurkat, DMZ # ACC282) are utilized for the detection of biologically relevant protein analytes in “immobilization samples”. These cells are cultivated at 37° C. in a solution containing RPMI 1640, 10% FCS (fetal calf serum), 2 mM glutamine, 50 U/ml penicillin, 50 μg/ml streptamycine (cell density at about 0.5×10^6-1.0×10^6 cells/ml). […] A cell culture, which is similar to the one described above but not treated with antibodies, is used as a comparison sample and shall serve as a negative control in the analytical detection method. […] The cells here are simply separated from the medium, without damage to the cells. The supernatant is then decanted, and lysis buffer (7 M urea, 2 M thiourea, 4% CHAPS, 1% DTT, 4 mM spermidine and Complete (protease inhibitor, Roche AG, 1 tablet/50 ml) is added, the total protein concentration being adjusted to about 10 mg/ml. Thereby, all protein-containing cell components are denatured spontaneously and completely and solubilized. The samples obtained by the preparation steps described above are again diluted by a factor of 10 to a total protein concentration of about 1 mg/ml, and are then deposited in discrete measurement areas for generating an array of measurement areas on the evanescent field sensor platform provided with the adhesion-promoting layer. […]
structure (smiles),measurement,value
"CN[C@@H]1C[C@H]2O[C@@](C)([C@@H]1OC)n1c3ccccc3c3c4c(c5c6ccccc6n2c5c31)C(=O)NC4 [staurosporin, staurosporine]",pErk2 signal of the nonstimulated control sample compared with the treated sample,only slightly higher
